The source of these data is patent publication US12221494B2, “Short synthetic peptides and their uses for treating retinal degenerative diseases and/or tissue injuries” (MacKay Memorial Hospital, priority 2019, dated 2025).

Assay [1] deals with STZ-induced diabetic mice. Nature of the assay: Vascular abnormalities (FITC-BSA hemorrhaging areas) in the retina of STZ-induced diabetic mice. Format: in vivo, mouse. Particulars: 200 μM eye drop three times a day for 14 days, vehicle control 8.2±1.5. As for the experimental part:
Diabetic mice were generated by intraperitoneal injection of streptozotocin (STZ; 200 mg/kg body weight) at day 1 and day 3. STZ was freshly prepared in 0.1 M citrate buffer (pH 4.5). After injection, mice were supplied with 10% sucrose overnight to prevent sudden hypoglycaemic shock. After 1 week (day 7), mice with non-fasting blood glucose levels >500 mg/dl were defined as diabetic and used for the experiments. Balanced salt solution (BSS) was served as peptide vehicle (Alcon, Novartis). 6-mer analogues (dissolved in BSS to 200 μM) eye drop were topically administered to eyes three times a day. After 2 weeks (day 14), mice were intraperitoneal injection of 100 mg/kg of FITC-BSA for further 30 min to determine vascular lesions (hemorrhaging areas) in retina. Subsequently, the animals were euthanized by CO2 inhalation, and the eyes were enucleated and fixed with 4% PFA for overnight at 4° Cand flat-mounted onto glass slides to obtain optical sections. Vascular lesions in the retina was scored in all four retinal quadrants of flat mounts by an epifluorescence microscopy at 200×. Three microscopic fields were sampled in each quadrant in both the central and peripheral retina, and data were presented as the average number of lesions/retina.
Microscopic appearance of degenerate capillaries in the I/R-induced retina are similar to that of acellular capillaries found in diabetic retinopathy. […]

Assay [2] deals with STZ-induced diabetic mice. Nature of the assay: GFAP immunofluorescence staining of retina of STZ-induced diabetic mice. Type of assay: in vivo, mouse. Conditions: eye drop, 14 days after STZ injection, vehicle/STZ 24.3±2.7. As to the method: Deparaffinized retinal sections were blocked with 10% goat serum and 5% bovine serum albumin (BSA) in PBS containing 0.5% TritonX-100 (PBST) for 20 min at room temperature for blocking nonspecific staining. Staining was performed using primary antibodies against glial fibrillary acidic protein (GFAP) (1:100 dilution) or Iba-1 (1:100 dilution) at 37° C. for 3 h. The slides were subsequently incubated with the appropriate fluorescent-labeled secondary antibodies (1:500 dilution) at 37° C. for 1 h and then counterstained with Hoechst 33258 for 6 min. The slides were then rinsed with PBST three times, mounted with FluorSave™ reagent (Calbiochem) and viewed with an epifluorescence microscope (Zeiss Axioplan 2 imaging; Zeiss, Oberkochen, Germany) Three sections per eye were averaged and the mean of six eyes was recorded as the representative value for each group.
Diabetic mice were generated by intraperitoneal injection of streptozotocin (STZ; 200 mg/kg body weight) at day 1 and day 3. STZ was freshly prepared in 0.1 M citrate buffer (pH 4.5). After injection, mice were supplied with 10% sucrose overnight to prevent sudden hypoglycaemic shock. […] Vascular lesions in the retina was scored in all four retinal quadrants of flat mounts by an epifluorescence microscopy at 200×. […]

Assay [3] concerns TNF-α mRNA. The experiment in a line: Hyperosmotic stress-induced TNF-α gene expression in rabbit corneal epithelial cells (qPCR). Format: cell-based. Particulars: 20 μM peptide 6 h, then hyperosmotic medium (463 mOsM) 3 h, solvent 12.8-fold. As for the experimental part: Total RNA was extracted from cells using TRIzol (Invitrogen). Synthesis of cDNA was performed with 1 μg of total RNA at 50° C. for 50 min using oligo(dT) primers and reverse transcriptase (Superscript III; Invitrogen). Briefly, quantification of cDNA was performed in the LightCycler (Roche, Mannheim, Germany) using the DNA Master SYBR Green I kit (Roche) with the following cycling conditions: initial denaturation at 95° C. for 10 min, followed by 40 cycles at 95° C. for 10 s, 60° C. for 10 s, and 72° C. for 10 s and a 5-min terminal incubation at 72° C. The data were calculated with AACt. The expression was then normalized against the expression of glyceraldehyde-3-phosphate dehydrogenase (GAPDH). The PCR primers were mouse Survivin sense, 5′-[…]-3′ (SEQ ID NO: 27), anti-sense, 5′-[…]-3′ (SEQ ID NO: 28) (accession number: NM_001012273.1; PCR product: 136 bp); mouse GAPDH sense, 5′-[…]-3′ (SEQ ID NO: 29), anti-sense, 5′-[…]-3′ (SEQ ID NO: 30) (NM_001289726.1; 149 bp). For analysis rabbit inflammatory gene expression, The PCR primers were rabbit TNF-αsense, 5′-[…]-3′ (SEQ ID NO: 31), anti-sense, 5′-[…]-3′ (SEQ ID NO: 32) (accession number: NM 001082263.1); rabbit IL-1βsense, 5′-[…]-3′(SEQ ID NO: 33), anti-sense, 5′-[…]-3′ (SEQ ID NO: 34) (NM 001082201.1); rabbit GAPDH sense, 5′-[…]-3′ (SEQ ID NO: 35), anti-sense, 5′-[…]-3′ (SEQ ID NO: 36) (accession number:NM 001082253.1). The cycle threshold (Ct) values of the PCR product and a GAPDH (Glyceraldehyde 3-phosphate dehydrogenase) control mRNA were used to calculate relative quantities of mRNA.
Limbal stem epithelial cells (LSEC) were isolated from 6-month-old New Zealand white rabbits and continuously cultivated for 14 days byDMEM/F-12basalmedium based cell-suspension culture to achieve corneal-liked epithelial cell differentiation as previously described (Ho et al., Stem Cells. 2013; 31:1775). […] After 3 h, quantitative real-time PCR was used to estimate HOP-induced Tumor necrosis factor (TNF)-α and nterleukin-1 beta (IL-1β) expressions. […]
Background: Real-time PCR tracks product formation cycle by cycle.

Assay [4] relates to survivin mRNA. Nature of the assay: Real-time qPCR of survivin mRNA in C2C12 cells. Format: cell-based, mouse. Conditions: stimulated for 3 h.

For “NH2-(D-Ser)-Leu-Gly-Ala-Glu-Gln-COOH (SLGAEQ; HELM PEPTIDE1{[dS].L.G.A.E.Q}$$$$V2.0; SMILES CC(C)C[C@H](NC(=O)[C@H](N)CO)C(=O)NCC(=O)N[C@@H](C)C(=O)N[C@@H](CCC(=O)O)C(=O)N[C@@H](CCC(N)=O)C(=O)O) [6-mer dS]”, the “numbers of vascular lesions (hemorrhaging areas in a retina)” value in assay [1] came out at 2.8±0.6 lesions/retina. Besides, the GFAP-positive astrocytes in assay [2] turned out to be 11.0±1.4 numbers/400× field. For the same substance, the “mRNA expression of TNF-α, in words” value in assay [3] was “apparently repressed the mRNA expression of TNF-α and IL-1β”. Further, in assay [4], the “level of survivin mRNA compared to solvent-treated cells” value was determined as 2.6 fold.
